Source: PubChem BioAssay AID330 (DTP/NCI, 2004)
Values joined by “and” are separate entries in the source; they are usually repeats but may differ in a detail not shown here. Equal values may be shown once. Toxic doses and inconclusive results are not listed. How the source made its calls: active means survival T/C of 150% or more; inactive means T/C below 125% in these data. Numbered stars: 1 amine (or outer) side, 2 acyl side, 3 side chain; on linkers, the order of the positions; unused ones are H or OH. Square brackets hold non-standard residues; d marks the D form. Peptide text beside a SMILES is read from it. X21 = O=C(C1=CN(Cc2ccccc2)C=CC1N[*:1])[*:2]

Tested on: P388 leukemia ip, CD2F1 mice, survival T/C
Assay: NCI In Vivo Anticancer Drug Screen. Data for tumor model P388 Leukemia (intraperitoneal) in CD2F1 (CDF1) mice
Settings: endpoint: median survival time, higher = longer survival
How it was run: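 Mice carrying the transplanted tumor received test compound or vehicle. Survival was recorded in each group, and the value is the treated-group measurement divided by that of the vehicle-treated control group.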

[1] = dose: 50.0 mg/kg/injection, schedule: Q01DX005 (ip), vehicle: saline with Tween-80
[2] = dose: 100.0 mg/kg/injection, schedule: Q01DX005 (ip), vehicle: saline with Tween-80
[3] = dose: 200.0 mg/kg/injection, schedule: Q01DX005 (ip), vehicle: saline with Tween-80
[4] = dose: 50.0 mg/kg/injection, schedule: Q01DX005 (ip), vehicle: Klucel (hydroxypropylcellulose) (HPC)
[5] = dose: 100.0 mg/kg/injection, schedule: Q01DX005 (ip), vehicle: Klucel (hydroxypropylcellulose) (HPC)
[6] = dose: 200.0 mg/kg/injection, schedule: Q01DX005 (ip), vehicle: Klucel (hydroxypropylcellulose) (HPC)
[7] = dose: 60.0 mg/kg/injection, schedule: Q01DX005 (ip), vehicle: saline with Tween-80
[8] = dose: 120.0 mg/kg/injection, schedule: Q01DX005 (ip), vehicle: saline with Tween-80

Measured: T/C

O=C1C2CCC(C2)[CH]1[Hg][Cl] (stereo not drawn)
inactive: dose: 6.25 mg/kg/injection, schedule: Q01DX009 (ip), vehicle: saline with Tween-80 107 % of control | dose: 12.5 mg/kg/injection, schedule: Q01DX009 (ip), vehicle: saline with Tween-80 112 % of control | dose: 25.0 mg/kg/injection, schedule: Q01DX009 (ip), vehicle: saline with Tween-80 88 % of control

O=C(O)c1[nH]c(=O)[nH]c(=O)c1CO
inactive: dose: 6.25 mg/kg/injection, schedule: Q01DX009 (ip), vehicle: distilled water + Tween-80 99 % of control | dose: 12.5 mg/kg/injection, schedule: Q01DX009 (ip), vehicle: distilled water + Tween-80 100 % of control | dose: 25.0 mg/kg/injection, schedule: Q01DX009 (ip), vehicle: distilled water + Tween-80 103 % of control | dose: 50.0 mg/kg/injection, schedule: Q01DX009 (ip), vehicle: distilled water + Tween-80 110 % of control | dose: 100.0 mg/kg/injection, schedule: Q01DX009 (ip), vehicle: distilled water + Tween-80 100 % of control | dose: 200.0 mg/kg/injection, schedule: Q01DX009 (ip), vehicle: distilled water + Tween-80 95 % of control | dose: 400.0 mg/kg/injection, schedule: Q01DX009 (ip), vehicle: distilled water + Tween-80 104 % of control

N#C/C(=C\c1c(Cl)cccc1Cl)c1nc(-c2ccc(Cl)cc2)cs1
inactive: dose: 50.0 mg/kg/injection, schedule: Q01DX009 (ip), vehicle: saline 92 % of control | dose: 100.0 mg/kg/injection, schedule: Q01DX009 (ip), vehicle: saline 92 % of control | dose: 200.0 mg/kg/injection, schedule: Q01DX009 (ip), vehicle: saline 105 % of control

COCCOCCN1CCN(CCCN2c3ccccc3Sc3ccc(C(F)(F)F)cc32)CC1
inactive: dose: 1.56 mg/kg/injection, schedule: Q04DX003 (ip), vehicle: saline 95 % of control | dose: 3.0 mg/kg/injection, schedule: Q04DX003 (ip), vehicle: saline 104 % of control and 97 % of control | dose: 3.12 mg/kg/injection, schedule: Q04DX003 (ip), vehicle: saline 95 % of control | dose: 6.0 mg/kg/injection, schedule: Q04DX003 (ip), vehicle: saline 108 % of control | dose: 6.25 mg/kg/injection, schedule: Q04DX003 (ip), vehicle: saline 96 % of control | dose: 12.0 mg/kg/injection, schedule: Q04DX003 (ip), vehicle: saline 104 % of control and 122 % of control | dose: 12.5 mg/kg/injection, schedule: Q04DX003 (ip), vehicle: saline 120 % of control | dose: 50.0 mg/kg/injection, schedule: Q04DX003 (ip), vehicle: saline 124 % of control

COC(=O)C1=CO[C@@H](C)[C@@H]2CN3CCc4c([nH]c5ccc(OC)cc45)[C@@H]3C[C@H]12
inactive: [1] 106 % of control | [2] 101 % of control | [3] 105 % of control

O=C1OC(CCc2ccccc2O)c2ccccc21 (stereo not drawn)
inactive: [1] 89 % of control | [2] 99 % of control | [3] 93 % of control

CCc1cccc(NC(=O)Sc2ccc(O)cc2)c1
inactive: dose: 50.0 mg/kg/injection, schedule: Q01DX009 (ip), vehicle: saline with Tween-80 108 % of control | dose: 100.0 mg/kg/injection, schedule: Q01DX009 (ip), vehicle: saline with Tween-80 106 % of control

CN1C(=O)C(=C2C=C(c3ccccc3)C(C#N)(c3ccccc3)C(c3ccccc3)=C2)C(=O)N(C)C1=O (stereo not drawn)
inactive: [4] 106 % of control | [5] 107 % of control | [6] 101 % of control

C1=C(c2ccccc2)Oc2ccccc2[P+]1(c1ccccc1)c1ccccc1
inactive: dose: 0.78 mg/kg/injection, schedule: Q01DX005 (ip), vehicle: Klucel (hydroxypropylcellulose) (HPC) 100 % of control | dose: 1.56 mg/kg/injection, schedule: Q01DX005 (ip), vehicle: Klucel (hydroxypropylcellulose) (HPC) 109 % of control | dose: 3.12 mg/kg/injection, schedule: Q01DX005 (ip), vehicle: Klucel (hydroxypropylcellulose) (HPC) 99 % of control

COc1cc(C)c2[nH]c3c(C)c(Cl)ccc3c(=O)c2c1
inactive: dose: 50.0 mg/kg/injection, schedule: Q01DX005 (ip), vehicle: Klucel + Tween-80 97 % of control | dose: 100.0 mg/kg/injection, schedule: Q01DX005 (ip), vehicle: Klucel + Tween-80 93 % of control | dose: 200.0 mg/kg/injection, schedule: Q01DX005 (ip), vehicle: Klucel + Tween-80 96 % of control

CCOC(=O)C1=C(C)/C(=C/c2[n-]c(Cl)c(C)c2C(=O)OCC)N=C1C.CCOC(=O)C1=C(C)/C(=C/c2[n-]c(Cl)c(C)c2C(=O)OCC)N=C1C.[Co+3]
inactive: [4] 88 % of control | [5] 98 % of control | [6] 108 % of control

O=C(/C=C/c1c[nH]c2ccccc12)c1ccc([N+](=O)[O-])cc1
inactive: dose: 15.0 mg/kg/injection, schedule: Q01DX005 (ip), vehicle: saline with Tween-80 100 % of control | dose: 30.0 mg/kg/injection, schedule: Q01DX005 (ip), vehicle: saline with Tween-80 86 % of control | [7] 97 % of control

O=C1CC(=O)N(CN2C(=O)CC(=O)NC2=S)C(=S)N1
inactive: [4] 100 % of control | [5] 103 % of control | [6] 105 % of control

CC1NC(=O)C(C(C)C)NC(=O)C2=CN(Cc3ccccc3)C=CC2NC(=O)C(C)NC(=O)C(C(C)C)NC(=O)C2=CN(Cc3ccccc3)C=CC2NC1=O (stereo not drawn) (cyclo([X21]VA[X21]VA); configuration not given here)
inactive: [7] 94 % of control | [8] 93 % of control

COc1c(-c2ccccc2)cc(-c2ccccc2)c(-c2ccccc2)c1-c1ccccc1
inactive: dose: 100.0 mg/kg/injection, schedule: Q04DX002 (ip), vehicle: saline with Tween-80 93 % of control | dose: 200.0 mg/kg/injection, schedule: Q04DX002 (ip), vehicle: saline with Tween-80 86 % of control | dose: 400.0 mg/kg/injection, schedule: Q04DX002 (ip), vehicle: saline with Tween-80 89 % of control

CCOC(=O)C(Cc1ccccc1Cl)(Cc1ccccc1Cl)c1ccccc1
inactive: dose: 266.0 mg/kg/injection, schedule: Q01DX009 (ip), vehicle: saline with Tween-80 98 % of control | dose: 400.0 mg/kg/injection, schedule: Q01DX009 (ip), vehicle: saline with Tween-80 111 % of control | dose: 600.0 mg/kg/injection, schedule: Q01DX009 (ip), vehicle: saline with Tween-80 96 % of control

O=C(CNC(=O)c1ccccc1)N/N=C/c1ccccc1O
inactive: [7] 100 % of control | [8] 101 % of control | dose: 240.0 mg/kg/injection, schedule: Q01DX005 (ip), vehicle: saline with Tween-80 100 % of control

CC(=O)N1CCCC2=C1CCCCCCCCCC2
inactive: dose: 100.0 mg/kg/injection, schedule: Q04DX003 (ip), vehicle: saline 99 % of control | dose: 200.0 mg/kg/injection, schedule: Q04DX003 (ip), vehicle: saline 105 % of control | dose: 400.0 mg/kg/injection, schedule: Q04DX003 (ip), vehicle: saline 96 % of control

CN(C)CC(O)C(=O)O (stereo not drawn)
inactive: dose: 25.0 mg/kg/injection, schedule: Q01DX005 (ip), vehicle: saline 96 % of control | dose: 50.0 mg/kg/injection, schedule: Q01DX005 (ip), vehicle: saline 98 % of control | dose: 100.0 mg/kg/injection, schedule: Q01DX005 (ip), vehicle: saline 95 % of control | dose: 200.0 mg/kg/injection, schedule: Q01DX005 (ip), vehicle: saline 96 % of control

CN1CCCC(Cc2ccccc2)S1(=O)=O (stereo not drawn)
inactive: dose: 100.0 mg/kg/injection, schedule: Q01DX001 (ip), vehicle: saline with Tween-80 98 % of control | dose: 200.0 mg/kg/injection, schedule: Q01DX001 (ip), vehicle: saline with Tween-80 99 % of control | dose: 400.0 mg/kg/injection, schedule: Q01DX001 (ip), vehicle: saline with Tween-80 98 % of control
